Non-standard residues stand in square brackets, D forms with d. Residues, ends and D or L forms follow the SMILES beside them. *: point of attachment. X1 = Fc1ccc(-c2csc(N3CCOCC3)n2)c(OCCOCCOCCN*)c1F; X2 = O=C(NCCCCCCN*)c1cccc2sc(N3CCOCC3)nc12; Dip = N[C@H](C(=O)O)C(c1ccccc1)c1ccccc1; Chg = N[C@H](C(=O)O)C1CCCCC1; NMeA = CN[C@@H](C)C(=O)O
Assays:
Format in all cases: physicochemical
[1] = Kinetic solubility of the compound incubated for 60 mins under shaking condition by UHPLC-MS analysis; details: 1 h
[2] = Distribution coefficient, logD of compound in n-Octanol/PBS at pH 7.4 incubated for 30 mins under shaking condition by UHPLC-MS analysis
[3] = Distribution coefficient, logD of compound in n-Octanol/PBS at pH 7.4 incubated for 30 mins under shaking condition by UV-Vis spectroscopic analysis; details: for logD: octanol/water, pH 7.4, 0.5 h, BLD = below limit of detection; for logD at 0.5 h: n-octanol/PBS, pH 7.4
[4] = Kinetic solubility of the compound incubated for 60 mins under shaking condition by UV-Vis spectroscopic analysis; details: 1 h

SMILES | log(Kinetic_solubility) [1] | logD at 0.5 h [2] | logD [3] | log(Kinetic_solubility) ([4]; BLD = below limit of detection) | log(Kinetic_solubility) [4] | logD at 0.5 h [3] | log(Kinetic_solubility) ([1]; BLD = below limit of detection)
CCOC(=O)c1c(C)n(Cc2ccccc2)c2ccc(OCC(=O)NCCCC(=O)N[C@H](C(=O)N3C[C@H](O)C[C@H]3C(=O)N[C@@H](C)c3ccc(-c4scnc4C)cc3)C(C)(C)C)cc12 | -6.23 | 5.1 | Bld | Bld | – | – | –
Cc1ncsc1-c1ccc([C@H](C)NC(=O)[C@@H]2C[C@@H](O)CN2C(=O)[C@@H](NC(=O)CN2CCN(C(=O)C[C@@H]3N=C(c4ccc(Cl)cc4)c4c(sc(C)c4C)-n4c(C)nnc43)CC2)C(C)(C)C)cc1 | -4.9 | 4.56 | Bld | – | -4.79 | – | –
CN[C@@H](C)C(=O)N[C@H](C(=O)N1CCC[C@H]1C(=O)N[C@H](C(=O)NCCCCCCNC(=O)c1cccc2sc(N3CCOCC3)nc12)C(c1ccccc1)c1ccccc1)C1CCCCC1 (H-[NMeA][Chg]P[Dip]-X2) | -4.72 | 5.1 | Bld | – | -4.66 | – | –
Cc1ncsc1-c1ccc([C@H](C)NC(=O)[C@@H]2C[C@@H](O)CN2C(=O)[C@@H](NC(=O)CCCCn2cc(COc3c(-c4csc(N5CCOCC5)n4)ccc(F)c3F)nn2)C(C)(C)C)cc1 | -5.14 | 4.99 | Bld | – | -5 | – | –
COc1ccc2c(c1)c(CC(=O)N1CCN(CCOCCOCC(=O)N[C@H](C(=O)N3C[C@H](O)C[C@H]3C(=O)N[C@@H](C)c3ccc(-c4scnc4C)cc3)C(C)(C)C)CC1)c(C)n2C(=O)c1ccc(Cl)cc1 | -5.22 | 4.33 | – | – | -5.11 | 4.1 | –
O=C(COc1c(-c2csc(N3CCOCC3)n2)ccc(F)c1F)NCCOCCOCCOCCOCCNc1cccc2c1C(=O)N(C1CCC(=O)NC1=O)C2=O (centres undefined) | -4.28 | 2.82 | – | – | -4.28 | 2.82 | –
COc1ccc2c(c1)c(CC(=O)N1CCN(CCC(=O)N[C@H](C(=O)N3C[C@H](O)C[C@H]3C(=O)N[C@@H](C)c3ccc(-c4scnc4C)cc3)C(C)(C)C)CC1)c(C)n2C(=O)c1ccc(Cl)cc1 | -6.1 | 5.5 | Bld | Bld | – | – | –
Cc1ncsc1-c1ccc([C@H](CC(=O)NCCCCCCCCCCC(=O)N[C@H]2C(C)(C)[C@H](Oc3ccc(C#N)c(Cl)c3)C2(C)C)NC(=O)[C@@H]2C[C@@H](O)CN2C(=O)[C@@H](NC(=O)C2(F)CC2)C(C)(C)C)cc1 | – | 4.9 | Bld | Bld | – | – | Bld
Cc1ncsc1-c1ccc([C@H](C)NC(=O)[C@@H]2C[C@@H](O)CN2C(=O)[C@@H](NC(=O)CCCCn2cc(CN3CCN(C(=O)C[C@@H]4N=C(c5ccc(Cl)cc5)c5c(sc(C)c5C)-n5c(C)nnc54)CC3)nn2)C(C)(C)C)cc1 | -4.68 | 4.12 | – | – | -4.54 | 3.81 | –
Cc1ccc(-c2csc(N3CCOCC3)n2)c(OCC(=O)NCCCCC(=O)N[C@H](C(=O)N2C[C@H](O)C[C@H]2C(=O)N[C@@H](C)c2ccc(-c3scnc3C)cc2)C(C)(C)C)c1C | -5.05 | 5.02 | Bld | – | -4.89 | – | –
COc1ccc2c(c1)c(CC(=O)NCCN1CCN(CCOCCOCC(=O)N[C@H](C(=O)N3C[C@H](O)C[C@H]3C(=O)N[C@@H](C)c3ccc(-c4scnc4C)cc3)C(C)(C)C)CC1)c(C)n2C(=O)c1ccc(Cl)cc1 | -4.62 | 5.1 | Bld | – | -4.59 | – | –
Cc1ncsc1-c1ccc([C@H](C)NC(=O)[C@@H]2C[C@@H](O)CN2C(=O)[C@@H](NC(=O)CCCCCCCCCCC(=O)N2CCN(C(=O)c3cc(Cc4n[nH]c(=O)c5ccccc45)ccc3F)CC2)C(C)(C)C)cc1 | -7.21 | 5 | Bld | Bld | – | – | –
O=C1CCC(N2C(=O)c3cccc(NCCOCCOCC(=O)N4CCN(C(=O)c5cc(Cc6n[nH]c(=O)c7ccccc67)ccc5F)CC4)c3C2=O)C(=O)N1 (centres undefined) | -4.19 | 1.27 | – | – | -4.16 | 0.867 | –
Cn1c(=O)n(C)c2cc(CNCCOCCNCC3CCN(c4ccc(C(=O)N[C@H]5CC[C@H](Oc6ccc(C#N)c(Cl)c6)CC5)nn4)CC3)ccc21 | -3.64 | 3.7 | – | – | -3.69 | 3.25 | –
CN[C@@H](C)C(=O)N[C@H](C(=O)N1CCC[C@H]1C(=O)N[C@H](C(=O)NCCOCCOCCOc1c(-c2csc(N3CCOCC3)n2)ccc(F)c1F)C(c1ccccc1)c1ccccc1)C1CCCCC1 (H-[NMeA][Chg]P[Dip]-X1) | -4.55 | 5.1 | Bld | – | -4.49 | – | –
COc1ccc2c(c1)c(CC(=O)NCCCCCCC(=O)N[C@H](C(=O)N1C[C@H](O)C[C@H]1C(=O)N[C@@H](C)c1ccc(-c3scnc3C)cc1)C(C)(C)C)c(C)n2C(=O)c1ccc(Cl)cc1 | -7.34 | 5.6 | Bld | Bld | – | – | –
N#Cc1ccc(O[C@H]2CC[C@H](NC(=O)c3ccc(N4CCC(CN5CCN(c6cc7c(cc6F)C(=O)N(C6CCC(=O)NC6=O)C7=O)CC5)CC4)nn3)CC2)cc1Cl (some centres undefined) [BAVDEGALUTAMIDE] | – | 5.38 | Bld | Bld | – | – | Bld
Cc1ncsc1-c1ccc([C@H](C)NC(=O)[C@@H]2C[C@@H](O)CN2C(=O)[C@@H](NC(=O)COCCOCCOCC(=O)N[C@H](C(=O)N2C[C@H](O)C[C@H]2C(=O)N[C@@H](C)c2ccc(-c3scnc3C)cc2)C(C)(C)C)C(C)(C)C)cc1 | -4.23 | 3.9 | – | – | -4.21 | 3.5 | –
Cc1ncsc1-c1ccc(CNC(=O)[C@@H]2C[C@@H](O)CN2C(=O)[C@@H](NC(=O)COCCOCCOCCOCCOCCOCC(=O)N[C@H](C(=O)N2C[C@H](O)C[C@H]2C(=O)NCc2ccc(-c3scnc3C)cc2)C(C)(C)C)C(C)(C)C)cc1 | -3.24 | 3 | – | – | -3.25 | 3.09 | –
CC(=O)c1c(C)c2cnc(Nc3ccc(N4CCN(CCOCCOCCOCCNC(=O)COc5cccc6c5C(=O)N(C5CCC(=O)NC5=O)C6=O)CC4)cn3)nc2n(C2CCCC2)c1=O (centres undefined) | -5.05 | 2.29 | – | – | -4.72 | 2.17 | –
Cn1c(=O)n(C)c2cc(CNCCCNCC3CCN(c4ccc(C(=O)N[C@H]5CC[C@H](Oc6ccc(C#N)c(Cl)c6)CC5)nn4)CC3)ccc21 | -4.14 | 4.43 | Bld | – | -4.28 | – | –
Cc1ncsc1-c1ccc([C@H](C)NC(=O)[C@@H]2C[C@@H](O)CN2C(=O)[C@@H](NC(=O)CCCCn2cc(CCCC(=O)N3CCN(C(=O)c4cc(Cc5n[nH]c(=O)c6ccccc56)ccc4F)CC3)nn2)C(C)(C)C)cc1 | -4.34 | 3 | – | – | -4.37 | 2.89 | –
CCOC(=O)c1c(C)n(Cc2ccccc2)c2ccc(OCCCCCCC(=O)N[C@H](C(=O)N3C[C@H](O)C[C@H]3C(=O)N[C@@H](C)c3ccc(-c4scnc4C)cc3)C(C)(C)C)cc12 | – | 5.15 | Bld | Bld | – | – | Bld
Cc1ncsc1-c1ccc([C@H](C)NC(=O)[C@@H]2C[C@H](O)CN2C(=O)[C@@H](NC(=O)COCCOCCOCC(=O)N[C@H](C(=O)N2C[C@@H](O)C[C@H]2C(=O)N[C@@H](C)c2ccc(-c3scnc3C)cc2)C(C)(C)C)C(C)(C)C)cc1 | -4.66 | 3.5 | – | – | -4.62 | 3.74 | –
O=C1CCC(N2C(=O)c3cccc(NCCOCCOCCOCCn4cc(COc5ccc(N(C(=O)CCl)C(C(=O)NCCc6ccccc6)c6cccs6)cc5Cl)nn4)c3C2=O)C(=O)N1 (centres undefined) | -6.77 | 4.27 | – | Bld | – | 3.92 | –
O=C(CCCCCCCCCCC(=O)N1CCN(C(=O)c2cc(Cc3n[nH]c(=O)c4ccccc34)ccc2F)CC1)NCCNc1cccc2c1C(=O)N(C1CCC(=O)NC1=O)C2=O (centres undefined) | -6.13 | 3.64 | – | Bld | – | 3.48 | –
